Common to all, as to assay: biochemical
Holding throughout (design): Eurofins recombinant human kinase profiling, remaining kinase activity as % of control, 10 uM ATP
Common to all, as to conditions: ATP 10 uM; read-out: %Ctrl@10 μM

One assay has as its target T1, CK1γ3(h) (Homo sapiens, UniProt Q9Y6M4).
T1 construct: gene CSNK1G3
The method, boiled down: (§1)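 Recombinant human kinases, 401 in total, screened using an outsourced kinase profiling assay.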

Another assay has as its target T2, PKCι(h) (Homo sapiens, UniProt P41743).
T2 construct: gene PRKCI
An outline of the steps:
as §1

The target of the next assay is T3, PDGFRβ(h) (Homo sapiens, UniProt P09619).
T3 construct: gene PDGFRB
An outline of the steps:
as §1

In another assay the target is T4, CaMKIIα(h) (Homo sapiens, UniProt Q9UQM7).
T4 construct: gene CAMK2A
T4 sequence (Q9UQM7 whole entry): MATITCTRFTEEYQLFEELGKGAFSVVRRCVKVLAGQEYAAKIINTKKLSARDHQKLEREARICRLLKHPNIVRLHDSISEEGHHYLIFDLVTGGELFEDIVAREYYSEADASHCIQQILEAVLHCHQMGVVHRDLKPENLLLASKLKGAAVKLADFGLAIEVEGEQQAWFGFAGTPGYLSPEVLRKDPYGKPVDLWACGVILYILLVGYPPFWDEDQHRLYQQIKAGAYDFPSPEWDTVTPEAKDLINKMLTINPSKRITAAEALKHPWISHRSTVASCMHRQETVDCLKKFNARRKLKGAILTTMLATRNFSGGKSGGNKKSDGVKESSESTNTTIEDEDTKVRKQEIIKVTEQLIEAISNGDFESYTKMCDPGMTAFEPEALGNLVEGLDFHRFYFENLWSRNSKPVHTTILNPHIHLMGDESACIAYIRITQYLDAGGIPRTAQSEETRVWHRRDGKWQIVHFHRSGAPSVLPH
The method, boiled down:
as §1

Another assay deals with T5, PKD2(h) (Homo sapiens, UniProt Q9BZL6).
T5 construct: gene PRKD2
An outline of the steps:
as §1

The target of the next assay is T6, BRK(h) (Homo sapiens, UniProt Q13882).
T6 construct: gene PTK6
T6 sequence (Q13882 whole entry): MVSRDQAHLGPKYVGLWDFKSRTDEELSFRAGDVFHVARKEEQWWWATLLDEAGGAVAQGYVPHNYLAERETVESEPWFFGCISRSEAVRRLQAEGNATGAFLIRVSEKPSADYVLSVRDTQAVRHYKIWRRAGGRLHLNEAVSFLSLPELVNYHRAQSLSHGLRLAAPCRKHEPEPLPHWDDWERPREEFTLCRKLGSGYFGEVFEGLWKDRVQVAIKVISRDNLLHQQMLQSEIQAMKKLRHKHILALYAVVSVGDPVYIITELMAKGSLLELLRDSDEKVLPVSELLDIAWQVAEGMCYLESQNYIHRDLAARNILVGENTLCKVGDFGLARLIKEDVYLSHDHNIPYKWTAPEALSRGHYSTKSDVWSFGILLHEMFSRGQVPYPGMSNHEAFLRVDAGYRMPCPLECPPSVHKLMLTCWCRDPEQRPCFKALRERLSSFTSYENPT
The method, boiled down: as §1

A further assay addresses ULK2(h) (Homo sapiens, UniProt Q8IYT8). The method, boiled down:
as §1

For the next assay, the target named is T7, MAPKAP-K2(h) (Homo sapiens, UniProt P49137).
T7 construct: gene MAPKAPK2
T7 sequence (P49137 whole entry): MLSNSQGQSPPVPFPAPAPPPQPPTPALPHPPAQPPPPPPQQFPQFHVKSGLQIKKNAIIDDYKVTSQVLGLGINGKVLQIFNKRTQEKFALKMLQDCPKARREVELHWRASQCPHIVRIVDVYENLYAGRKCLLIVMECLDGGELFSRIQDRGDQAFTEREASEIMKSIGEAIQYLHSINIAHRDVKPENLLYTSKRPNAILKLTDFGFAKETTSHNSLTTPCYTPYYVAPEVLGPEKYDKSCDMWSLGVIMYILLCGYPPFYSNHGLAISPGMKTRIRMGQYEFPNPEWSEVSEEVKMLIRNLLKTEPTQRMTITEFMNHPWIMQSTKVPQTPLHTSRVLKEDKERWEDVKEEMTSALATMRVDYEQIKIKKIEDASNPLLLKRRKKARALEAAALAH
An outline of the steps:
as §1

The next assay concerns the target T8, CK1ε(h) (Homo sapiens, UniProt P49674).
T8 construct: gene CSNK1E
An outline of the steps:
as §1

In another assay the target is T9, PhKγ2(h) (Homo sapiens, UniProt P15735).
T9 construct: gene PHKG2
An outline of the steps:
as §1

Another assay has as its target AAK1(h) (Homo sapiens, UniProt Q2M2I8). An outline of the steps: as §1
Another assay concerns the target T10, CK2α1(h) (Homo sapiens, UniProt P68400).
T10 construct: gene CSNK2A1
The method, boiled down:
as §1

The target of the next assay is T11, IGF-1R(h), activated (Homo sapiens, UniProt P08069).
T11 construct: gene IGF1R
The method, boiled down: as §1

The target of a further assay is T12, IKKβ(h) (Homo sapiens, UniProt O14920).
T12 construct: gene IKBKB
T12 sequence (O14920 whole entry): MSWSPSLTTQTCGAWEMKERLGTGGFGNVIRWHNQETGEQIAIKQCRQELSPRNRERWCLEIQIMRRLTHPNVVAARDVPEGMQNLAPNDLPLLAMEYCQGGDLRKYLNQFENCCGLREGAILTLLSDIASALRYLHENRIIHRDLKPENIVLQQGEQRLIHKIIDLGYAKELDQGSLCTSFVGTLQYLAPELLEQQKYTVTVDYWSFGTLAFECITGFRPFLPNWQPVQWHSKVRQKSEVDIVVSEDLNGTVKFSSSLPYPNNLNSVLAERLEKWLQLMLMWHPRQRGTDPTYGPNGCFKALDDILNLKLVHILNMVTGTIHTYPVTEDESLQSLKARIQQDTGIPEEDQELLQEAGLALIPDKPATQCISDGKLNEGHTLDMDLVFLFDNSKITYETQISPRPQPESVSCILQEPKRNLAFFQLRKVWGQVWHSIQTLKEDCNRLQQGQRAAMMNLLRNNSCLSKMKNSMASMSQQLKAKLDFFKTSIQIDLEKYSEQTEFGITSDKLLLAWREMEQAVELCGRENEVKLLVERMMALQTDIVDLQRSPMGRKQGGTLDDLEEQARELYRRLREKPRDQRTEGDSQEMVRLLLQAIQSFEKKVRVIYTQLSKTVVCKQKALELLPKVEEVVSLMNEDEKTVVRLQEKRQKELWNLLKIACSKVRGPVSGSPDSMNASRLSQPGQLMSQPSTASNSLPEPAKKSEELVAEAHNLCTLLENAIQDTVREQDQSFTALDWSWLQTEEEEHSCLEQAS
The method, boiled down:
as §1

A further assay deals with T13, MEKK2(h) (Homo sapiens, UniProt Q9Y2U5).
T13 construct: gene MAP3K2
An outline of the steps:
as §1

The target in another assay is T14, Tie2(Y897S)(h) (Homo sapiens, UniProt Q02763, Y897S).
T14 construct: gene TEK
An outline of the steps:
as §1

A further assay addresses T15, NDR2(h) (Homo sapiens, UniProt Q9Y2H1).
T15 construct: gene STK38L
The method, boiled down:
as §1

The next assay addresses T16, Fms(h) (Homo sapiens, UniProt P07333).
T16 construct: gene CSF1R
An outline of the steps: as §1

Assay [1] concerns the target T17, PI3 Kinase (p110(E542K)/p85)(h) (Homo sapiens, UniProt P42336, E542K).
T17 construct: gene PIK3CA
The method, boiled down: as §1

The next assay concerns the target EGFR(L861Q)(h) (Homo sapiens, UniProt P00533, L861Q). The method, boiled down:
as §1

For the next assay, the target named is T18, SAPK3(h) (Homo sapiens, UniProt P53778).
T18 construct: gene MAPK12
The method, boiled down:
as §1

For the next assay, the target named is T19, DCAMKL2(h) (Homo sapiens, UniProt Q8N568).
T19 construct: gene DCLK2
An outline of the steps:
as §1

T8 sequence (P49674 whole entry): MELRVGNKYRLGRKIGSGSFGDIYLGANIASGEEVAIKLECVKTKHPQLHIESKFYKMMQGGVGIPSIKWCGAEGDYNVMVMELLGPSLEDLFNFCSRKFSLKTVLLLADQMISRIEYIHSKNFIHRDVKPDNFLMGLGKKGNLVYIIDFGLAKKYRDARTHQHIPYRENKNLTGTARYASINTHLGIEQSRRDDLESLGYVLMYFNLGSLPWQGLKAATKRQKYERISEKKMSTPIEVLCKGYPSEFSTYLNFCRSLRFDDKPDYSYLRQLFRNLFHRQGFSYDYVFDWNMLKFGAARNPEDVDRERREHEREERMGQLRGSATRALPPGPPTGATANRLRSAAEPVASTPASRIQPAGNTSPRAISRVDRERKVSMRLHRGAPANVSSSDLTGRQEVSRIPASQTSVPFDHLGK
Sequence of ULK2(h) (Q8IYT8 whole entry): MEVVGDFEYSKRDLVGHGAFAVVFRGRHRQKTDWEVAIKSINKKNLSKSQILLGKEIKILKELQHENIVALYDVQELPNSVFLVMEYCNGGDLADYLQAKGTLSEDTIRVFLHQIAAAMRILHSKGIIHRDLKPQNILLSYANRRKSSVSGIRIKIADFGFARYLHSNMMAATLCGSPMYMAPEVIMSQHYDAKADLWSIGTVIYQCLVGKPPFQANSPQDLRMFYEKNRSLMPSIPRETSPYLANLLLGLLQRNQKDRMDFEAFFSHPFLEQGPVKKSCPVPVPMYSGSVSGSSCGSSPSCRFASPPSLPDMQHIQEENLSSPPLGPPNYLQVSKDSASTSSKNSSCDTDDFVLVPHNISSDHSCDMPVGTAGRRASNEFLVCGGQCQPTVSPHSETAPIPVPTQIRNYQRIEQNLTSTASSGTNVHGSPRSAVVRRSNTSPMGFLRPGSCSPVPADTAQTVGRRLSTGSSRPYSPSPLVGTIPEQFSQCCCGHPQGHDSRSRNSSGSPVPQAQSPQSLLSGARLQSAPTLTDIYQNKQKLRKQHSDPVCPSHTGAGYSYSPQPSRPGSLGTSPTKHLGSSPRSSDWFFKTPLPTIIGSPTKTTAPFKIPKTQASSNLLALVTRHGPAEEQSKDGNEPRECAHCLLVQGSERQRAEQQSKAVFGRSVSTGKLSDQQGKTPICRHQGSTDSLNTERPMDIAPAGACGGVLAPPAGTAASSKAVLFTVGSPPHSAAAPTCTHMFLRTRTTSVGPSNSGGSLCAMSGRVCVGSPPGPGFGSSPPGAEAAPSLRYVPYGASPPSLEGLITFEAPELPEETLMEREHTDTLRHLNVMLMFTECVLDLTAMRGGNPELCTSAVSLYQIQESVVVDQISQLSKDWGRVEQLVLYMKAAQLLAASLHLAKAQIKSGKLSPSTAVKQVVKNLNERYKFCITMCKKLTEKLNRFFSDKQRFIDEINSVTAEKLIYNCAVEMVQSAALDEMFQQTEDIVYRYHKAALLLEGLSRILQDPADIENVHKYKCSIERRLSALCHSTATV
Sequence of EGFR(L861Q)(h) (P00533 whole entry L861Q): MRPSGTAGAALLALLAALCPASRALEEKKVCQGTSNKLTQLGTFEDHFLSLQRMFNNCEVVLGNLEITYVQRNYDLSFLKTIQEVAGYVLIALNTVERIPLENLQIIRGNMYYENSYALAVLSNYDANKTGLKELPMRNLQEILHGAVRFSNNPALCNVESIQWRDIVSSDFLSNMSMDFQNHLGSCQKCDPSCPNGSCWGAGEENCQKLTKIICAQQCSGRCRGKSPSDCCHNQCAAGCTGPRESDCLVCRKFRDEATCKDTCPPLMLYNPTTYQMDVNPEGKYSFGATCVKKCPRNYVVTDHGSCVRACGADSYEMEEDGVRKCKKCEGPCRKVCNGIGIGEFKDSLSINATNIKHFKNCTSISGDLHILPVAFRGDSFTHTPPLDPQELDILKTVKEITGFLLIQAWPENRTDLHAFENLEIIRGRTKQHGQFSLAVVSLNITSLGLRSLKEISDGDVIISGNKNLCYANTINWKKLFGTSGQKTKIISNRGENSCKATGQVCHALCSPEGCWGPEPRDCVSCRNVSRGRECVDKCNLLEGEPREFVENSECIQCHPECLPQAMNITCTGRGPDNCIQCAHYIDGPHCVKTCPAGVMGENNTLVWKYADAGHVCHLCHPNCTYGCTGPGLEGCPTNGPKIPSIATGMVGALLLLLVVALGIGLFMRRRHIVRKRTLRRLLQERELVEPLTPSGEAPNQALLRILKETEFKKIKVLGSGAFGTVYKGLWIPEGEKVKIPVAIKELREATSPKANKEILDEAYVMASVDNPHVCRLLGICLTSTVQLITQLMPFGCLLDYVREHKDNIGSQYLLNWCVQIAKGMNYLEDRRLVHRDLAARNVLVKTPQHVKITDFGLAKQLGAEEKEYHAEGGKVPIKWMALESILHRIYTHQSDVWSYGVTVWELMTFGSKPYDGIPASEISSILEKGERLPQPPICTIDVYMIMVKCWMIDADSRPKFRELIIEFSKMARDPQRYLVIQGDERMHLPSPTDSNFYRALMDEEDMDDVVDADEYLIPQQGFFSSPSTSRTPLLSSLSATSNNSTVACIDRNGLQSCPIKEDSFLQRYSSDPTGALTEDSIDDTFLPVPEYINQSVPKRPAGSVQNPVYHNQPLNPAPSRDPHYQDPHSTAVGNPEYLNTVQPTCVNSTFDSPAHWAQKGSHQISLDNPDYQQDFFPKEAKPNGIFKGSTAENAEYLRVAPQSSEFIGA

Turning to `C1=C(c2nc(-c3cnn(C4CCNCC4)c3)cn3cc(-c4ccccc4)nc23)CCOC1` [YL-939], the remaining activity at 10 µM was determined as 102% at CK1γ3(h); 85% on PKCι(h); 113% at PDGFRβ(h); 64% on CaMKIIα(h); 89% at PKD2(h); 109% at BRK(h). Further, the remaining activity at 10 µM at ULK2(h) was 77%; at MAPKAP-K2(h), 92%; at CK1ε(h) it was 74%; at PhKγ2(h), 68%; at AAK1(h), 68%; on CK2α1(h), 103%. Besides, the remaining activity at 10 µM at IGF-1R(h), activated stood at 95%; at IKKβ(h), 87%; on MEKK2(h), 100%; on Tie2(Y897S)(h), 91%; on NDR2(h), 87%; on Fms(h), 122%. Moreover, the remaining activity at 10 µM in [1] stood at 99%; at EGFR(L861Q)(h) it was 61%; at SAPK3(h) it was 75%; on DCAMKL2(h) it was 79%.

For the origin of these results see paper PMC9719519, “Non-classical ferroptosis inhibition by a small molecule targeting PHB2” (Nature Communications, 2022).
